Patent US20220251044A1, “CRYSTAL FORM OF HYPOXIA-INDUCIBLE FACTOR-PROLYL HYDROXYLASE INHIBITOR” (CRYSTAL PHARMACEUTICAL (SUZHOU) CO., LTD., priority 2019, published 2022)
“Also recorded” adds a separate entry of the source.

Experiments:
Format in all cases: physicochemical
[1] = Crystalline form stability in the formulation process (XRPD); details: capsule formulation of Table 17, process of Table 18
Description: Form CSI of the present disclosure and WO2014014835 Form A were made into capsules using the formulation in Table 17 and the preparation process in Table 18. The XRPD patterns were collected before and after the formulation process. […] [table] [table]

[2] = Kinetic solubility in SGF, FaSSIF, FeSSIF and water
Description: The parameters for kinetic solubility tests of the present disclosure are as follows:
When solubility test is used to predict the in vivo performance of a drug, it is critical to simulate in vivo conditions as closely as possible. For oral medication, Simulated Gastric Fluid (SGF), Fasted-State Simulated Intestinal Fluid (FaSSIF), Fed-State Simulated Intestinal Fluid (FeSSIF) can be used to simulate the condition in vivo and predict the effects of feeding, thus solubility in such mediums is closer to that in vivo.
20 mg of Form CSI and 20 mg of WO2014014835 Form A were suspended into 4.0 mL of SGF, 4.0 mL of FaSSIF, 4.0 mL of FeSSIF and 4.0 mL of water to get saturated solutions. After equilibrated for 1 h, 4 h, 8 h and 24 h, the concentrations (μg/mL) of Compound I of the saturated solutions were measured by UPLC.

[3] = Pressure stability on tableting (XRPD)
Description: Certain amount of Form CSI was compressed into tablets under different pressures with suitable tableting die. Crystalline forms before and after tableting were checked by XRPD.

[4] = Compressibility (tablet hardness, tensile strength); details: 80 mg, compressed at 10 kN
Protocol: ENERPAC manual tablet press was used for compression. 80 mg of Form CSI and WO2014014835 Form A were weighed and added into the dies of a φ6 mm round tooling, compressed at 10 kN, then stored at room temperature for 24 h until complete elastic recovery. Hardness (H) was tested with an intelligent tablet hardness tester. Diameter (D) and thickness (L) were tested with a caliper. Tensile strength of the powder was calculated with the following formula: T=2H/πDL*9.8. Under a certain force, the greater the tensile strength, the better the compressibility.

[5] = Intrinsic dissolution (IDR); details: for IDR: slope of data within 5-120 minutes
Protocol: The parameters for intrinsic dissolution tests in the present disclosure are as follows:
Approximately 100 mg of Form CSI or WO2014014835 Form A was added into the cavity of the die, and then compressed at 10 kN and held for 0.5 minute to obtain a tablet having a surface area of 0.5 cm^2. The die with the tablet still embedded was put into a dissolution apparatus to test the intrinsic dissolution. The slope (in μg/min) of the regression line was calculated according to the data within 5-120 minutes. IDR (in μg/min/cm^2) was further calculated according to the slope.

Hygroscopicity by DVS = assay: Hygroscopicity by DVS
Protocol: Dynamic Vapor Sorption (DVS) was measured via an SMS (Surface Measurement Systems Ltd.) intrinsic DVS instrument. Its control software is DVS-Intrinsic control software. Typical parameters for DVS test are as follows: Temperature: 25° C. Gas and flow rate: N2, 200 mL/min dm/dt: 0.002%/min RH range: 0% RH to 95% RH DVS was applied to test the hygroscopicity of Form CSI and WO2014014835 Form A with about 10 mg of samples. The weight gains at each relative humidity were recorded in a cycle of 0-95%-0 RH. XRPD test was applied before and after DVS. Description and definition of hygroscopicity (general notice 9103 drug hygroscopicity test guidelines in 2015 edition of Chinese Pharmacopoeia, test at 25° C.±1° C., 80% RH. The definition of hygroscopicity in the 9th European Pharmacopoeia 5.11 is similar to the Chinese Pharmacopoeia.).

[6] = Physical stability on grinding (XRPD); details: ground manually for 5 min in a mortar
Protocol: Form CSI and WO2014014835 Form A was ground manually for 5 min in a mortar.

[7] = Stability of Form CSI on storage (XRPD form, chemical purity)
Protocol: The parameters for purity tests of the present disclosure are as follows: [table] Approximately 5 mg of solid samples of Form CSI were stored under different conditions of 25° C./60% RH, 40° C./75% RH and 60° C./75% RH. Chemical purity and crystalline form were checked by HPLC and XRPD, respectively.

[8] = 25° C./60% RH, sealed, 3 months
[9] = 40° C./75% RH, sealed, 3 months

Cc1nc(C(=O)NCC(=O)O)c(O)c2ccc(Oc3ccccc3)cc12 [Form CSI, [(4-hydroxy-1-methyl-7-phenoxy-isoquinoline-3-carbonyl)-amino]-acetic acid]
Crystalline form before and after the formulation process (XRPD) [1]: remains stable | Kinetic solubility (concentration of Compound I in saturated solution) ([2]; FaSSIF, 1 hour): 617.0 µg/mL | Kinetic solubility (concentration of Compound I in saturated solution) ([2]; FaSSIF, 4 hours): 934.6 µg/mL | Kinetic solubility (concentration of Compound I in saturated solution) ([2]; FaSSIF, 8 hours): 1043.5 µg/mL | Kinetic solubility (concentration of Compound I in saturated solution) ([2]; FaSSIF, 24 hours): 1109.6 µg/mL | Kinetic solubility (concentration of Compound I in saturated solution) ([2]; FeSSIF, 1 hour): 180.4 µg/mL | Kinetic solubility (concentration of Compound I in saturated solution) ([2]; FeSSIF, 4 hours): 270.3 µg/mL | Kinetic solubility (concentration of Compound I in saturated solution) ([2]; FeSSIF, 8 hours): 295.3 µg/mL | Kinetic solubility (concentration of Compound I in saturated solution) ([2]; FeSSIF, 24 hours): 314.4 µg/mL | Kinetic solubility (concentration of Compound I in saturated solution) ([2]; SGF, 1 hour): 22.7 µg/mL | Kinetic solubility (concentration of Compound I in saturated solution) ([2]; SGF, 4 hours): 24.0 µg/mL | Kinetic solubility (concentration of Compound I in saturated solution) ([2]; SGF, 8 hours): 24.2 µg/mL | Kinetic solubility (concentration of Compound I in saturated solution) ([2]; SGF, 24 hours): 24.0 µg/mL | Kinetic solubility (concentration of Compound I in saturated solution) ([2]; water, 1 hour): 18.2 µg/mL | Kinetic solubility (concentration of Compound I in saturated solution) ([2]; water, 4 hours): 21.9 µg/mL | Kinetic solubility (concentration of Compound I in saturated solution) ([2]; water, 8 hours): 34.1 µg/mL | Kinetic solubility (concentration of Compound I in saturated solution) ([2]; water, 24 hours): 25.7 µg/mL | Crystalline form after tableting (XRPD) ([3]; pressure 10 KN): Form CSI | Crystalline form after tableting (XRPD) ([3]; pressure 15 KN): Form CSI | Tensile strength ([4]; T=2H/πDL*9.8): 1.22 MPa | Hardness ([4]; φ6 mm round tooling, after 24 h): 2.47 kgf | Increase of dissolution rate compared with Form A ([5]; pH 4.5 PBS): 41% | Cumulative dissolution ([5]; pH4.5 PBS, 5 min, 37° C., 0.5 cm^2 tablet): 36.8 µg | Cumulative dissolution ([5]; pH4.5 PBS, 10 min): 35.6 µg | Cumulative dissolution ([5]; pH4.5 PBS, 15 min): 39.8 µg | Cumulative dissolution ([5]; pH4.5 PBS, 20 min): 50.0 µg | Cumulative dissolution ([5]; pH4.5 PBS, 25 min): 50.4 µg | Cumulative dissolution ([5]; pH4.5 PBS, 30 min): 56.0 µg | Cumulative dissolution ([5]; pH4.5 PBS, 45 min): 70.7 µg | Cumulative dissolution ([5]; pH4.5 PBS, 60 min): 83.0 µg | Cumulative dissolution ([5]; pH4.5 PBS, 90 min): 114.0 µg | Cumulative dissolution ([5]; pH4.5 PBS, 120 min): 142.3 µg | IDR ([5]; pH4.5 PBS): 1.8928 μg/min/cm^2 | Cumulative dissolution ([5]; pH6.8 PBS, 5 min, 37° C., 0.5 cm^2 tablet): 440.4 µg | Cumulative dissolution ([5]; pH6.8 PBS, 10 min): 916.0 µg | Cumulative dissolution ([5]; pH6.8 PBS, 15 min): 1345.9 µg | Cumulative dissolution ([5]; pH6.8 PBS, 20 min): 1758.2 µg | Cumulative dissolution ([5]; pH6.8 PBS, 25 min): 2152.9 µg | Cumulative dissolution ([5]; pH6.8 PBS, 30 min): 2521.4 µg | Cumulative dissolution ([5]; pH6.8 PBS, 45 min): 3392.2 µg | Cumulative dissolution ([5]; pH6.8 PBS, 60 min): 4309.7 µg | Cumulative dissolution ([5]; pH6.8 PBS, 90 min): 5967.2 µg | Cumulative dissolution ([5]; pH6.8 PBS, 120 min): 7448.5 µg | IDR ([5]; pH6.8 PBS): 120.3256 μg/min/cm^2 | Weight gain under 80% RH (Hygroscopicity by DVS; DVS, 25° C.): 0.12% | Hygroscopicity class (Hygroscopicity by DVS; weight gain under 80% RH): non-hygroscopic or almost non-hygroscopic; also recorded: non hygroscopic or almost non-hygroscopic | Crystalline form and crystallinity after grinding (XRPD) [6]: remain unchanged after grinding | Chemical purity during storage ([7]; 25° C./60% RH): above 99.5% | Time the drug substance kept stable (crystalline state unchanged) ([7]; 25° C./60% RH): at least three months | Crystalline form (XRPD) after storage ([7]; 25° C./60% RH, open, 3 months): Form CSI | Purity after storage ([7]; 25° C./60% RH, open, 3 months): 99.68% | Crystalline form (XRPD) after storage [7, 8]: Form CSI | Purity after storage [7, 8]: 99.65% | Time the drug substance kept stable (crystalline state unchanged) ([7]; 40° C./75% RH): at least three months | Chemical purity during storage ([7]; 40° C./75% RH and 60° C./75% RH): above 99.5% | Crystalline form (XRPD) after storage ([7]; 40° C./75% RH, open, 3 months): Form CSI | Purity after storage ([7]; 40° C./75% RH, open, 3 months): 99.68% | Crystalline form (XRPD) after storage [7, 9]: Form CSI | Purity after storage [7, 9]: 99.66% | Time the drug substance kept stable (crystalline state unchanged) ([7]; 60° C./75% RH): at least one month | Crystalline form (XRPD) after storage ([7]; 60° C./75% RH, open, 1 month): Form CSI | Purity after storage ([7]; 60° C./75% RH, open, 1 month): 99.63% | Crystalline form (XRPD) after storage ([7]; 60° C./75% RH, sealed, 1 month): Form CSI | Purity after storage ([7]; 60° C./75% RH, sealed, 1 month): 99.68% | Crystalline form (XRPD) ([7]; Initial): Form CSI | Purity ([7]; Initial): 99.71%
